Results taken from patent publication US9808434B2, “Compound for treating cancer and diabetes” (CITY OF HOPE, priority 2011, dated 2017).

Tests used:
HL-60 cells [1] = assay: HL-60 cell viability, MTT assay; conditions: for cytotoxicity and cell proliferation: 48 hours, 1-15 μM
Procedure: Three independent experiments were carried out with 3 duplications each, and data are shown as mean±SE.

HL-60 cells [2] = assay: HL-60 apoptosis, Annexin V-PI double staining; format: cell-based, human; conditions: 3 μM, 48 hours
Procedure: HL-60 (5×10^5) cells were incubated with a test compound (COH-SR4 or COH-SR9), ATRA, or nothing (Control) for 48 hours, washed and harvested. The cells were then fixed and double stained with Annexin V-FITC and propodium iodide (PI) and analyzed by flow cytometry. Conjugation of Annexin V and PI staining was used to identify apoptosis cells (early stage and late stage), normal/viable cells and necrotic cells. The percentage distribution of normal/viable (R3, lower left quadrant), early apoptotic (R4, lower right quadrant), late apoptotic (R2, upper right quadrant) and necrotic cells (R1, upper left quadrant) was calculated using Summit software. The percentages of apoptotic cells after treatment with various doses of each compound are shown in FIGS. 16A-H. Both COH-SR4 and COH-SR9 treatment of HL-60 cells increased the number of early apoptotic and late apoptotic cells in a dose-dependent manner compared with untreated cells. At 3 μM, overall apoptotic cells were ˜60% and 40% for COH-SR4 and COHSR9, respectively.

HL-60 cells [3] = assay: HL-60 apoptosis markers (DNA ladder, DiOC6(3), caspases, cytochrome c, PARP); format: cell-based, human; conditions: for DiOC6(3) fluorescence (mitochondrial depolarization): 4 hours; for cytochrome c release and PARP: 24 hours; for cytochrome c release and PARP / caspase 3/7 and caspase 9 activity: 0.5-3 μM; for caspase 3/7 and caspase 9 activity: 48 hours; for DNA fragmentation (DNA ladder): agarose gel
Procedure: DNA was stained with ethidium bromide after electrophoresis on 1.5% agarose gel and then visualized under UV light.
To test whether mitochondrial membrane disruption was involved in the apoptotic effects of COH-SR4 and COH-SR9, fluorescent cationic lipophilic dye DiOC6(3) was used and monitored using flow cytometry. HL-60 cells were exposed to various concentrations of COH-SR4 or COH-SR9 for 4 hours. After incubation, cells were rinsed and stained with the cationic fluorescent dye DiOC6(3) and then the overall fluorescence was analyzed by flow cytometry. […] Reduction of the fluorescence intensity of DiOC6(3) is indicative of the cells undergoing mitochondrial depolarization and loss of Δψmt. This effect, which has been commonly observed with other anticancer drugs irrespective of the cell type, generally defines an early but already irreversible stage of apoptosis.
HL-60 (2.5×10^4) cells were seeded into 96-well plates and incubated with a test compound (COH-SR4 or COH-SR9) at various concentrations (0.5˜3 μM) for 48 hours, then caspase-3/7 or caspase-9 activity was measured with the Caspase Glo kit (Promega), respectively. Data are expressed as mean±SE from 3 independent experiments (FIG. 18A), “*” in the figure means p<0.05 when compared to the untreated control.
Treatment of COH-SR compounds also triggered release of cytochrome c (14 kDa) into the cytoplasm and cleavage of full length PARP (116 kDa) into the 89 kDa fragment, all hallmarks of cells undergoing apoptosis (FIG. 18B). HL-60 cells were treated with COH-SR4 or COH-SR9 at various concentrations (0.5 μM˜3 μM) or nothing for 24 hours. Cytochrome c (14 kDa) and cleavage of full length PARP (116 kDa) into the 89 kDa fragment were analyzed in untreated HL-60 cells and HL-60 cells treated with COH-SR4 or COH-SR9 by Western blot. Numbers below each blot represent fold increase in protein expression relative to the control as quantified by densitometry and calculated with reference to β-actin as an internal standard.

[4] = tested on: cyclin D1, cyclin E2, CDK2, CDK4, p21WAF1/Cip1, p27Kip1; assay: HL-60 cell cycle regulatory proteins, Western blot; format: cell-based, human; conditions: 24 hours, 0.5-3 μM
Procedure: HL-60 cells were treated without or with COH-SR4 or COH-SR9 at a concentration of 0.5 μM, 1 μM, 2 μM, or 3 μM for 24 hours. Then the total cell lysates from the treated cells or untreated cells were resolved under electrophoresis and immunoblotted with antibodies against cyclin D1, cyclin E2, CDK2, CDK4, p21WAF1/Cip1, p27Kip1, and β-actin. β-actin served as an internal control. Densitometric quantitation was performed on each blot and the arbitrary numbers above each band represent the fold increase/decrease compared with untreated control. […] These kinase inhibitors are known to interfere with cell cycle progression to cause phase-specific cycle arrest by perturbing the phosphorylation process through direct interaction with their target proteins (cyclins or CDK).

HL-60 cells [5] = assay: Differentiation of HL-60 cells (Giemsa-Wright, NBT, CD11b/CD14); format: cell-based, human; conditions: 48 hours; for surface expression of CD11b and CD14: 0.5-3 μM, flow cytometry; for morphologic changes (Giemsa-Wright stain), myeloid differentiation: 2-10 μM
Procedure: HL-60 cells were incubated with a test compound at various concentrations (2˜10 μM), DMSO, or without any test compound for 48 hours, and then examined for morphologic changes by Giemsa-Wright stain. The results were observed microscopically and shown in FIG. 13 at a magnification of ×400. […] Such results were similar to cells treated with DMSO or all-trans retinoic acid (ATRA), wherein DMSO or ATRA terminally differentiated HL-60 cells into myeloid cells (FIG. 13).
HL-60 cells (2.5×10^5) were treated with or without a test compound for 48 hours and then stained with NBT, wherein positively-stained cells appeared as purple black (FIG. 14A). NBT positive cells were counted and the overall percentage was calculated based on 200 total cells counted for each treatment. Three˜four independent experiments were carried out, and data are shown as mean±SE (FIG. 14B). This measurement of “oxidative burst” by the NBT assay is a well-known and extensively tested functional marker of HL-60 cell differentiation.
HL-60 cells (2.5×10^5) were incubated with a test compound (COH-SR4 or COH-SR9) at a concentration of 0.5 μM, 1 μM, 2 μM, or 3 μM, or without any COH-SR compound for 48 hours and then assessed for the surface expression of CD11b (FIG. 14C) and CD14 (FIG. 14D) by flow cytometry, respectively. Three-four independent experiments were carried out, and data are shown as mean±SE (FIGS. 14C and 14D).

[6] = tested on: HMLE breast cancer cell line; assay: HMLE viability, DIMSCAN assay; format: cell-based, human; conditions: 3 days, 2-50 μM
Procedure: The effects of COH-SR compounds on breast cancer cells were investigated. Cells from 4T1 or HMLE breast cancer cell line were seeded in 96-well plates (about 2000 cells/well), allowed to proliferate for one day, treated with a COH-SR compound, doxorubicin, paclitaxel, cisplatin, or nothing (control) at a specific dose (3 wells for each treatment) and assayed for cell viability 3 days after using DIMSCAN assay. COH-SR3, COH-SR4, COH-SR9, doxorubicin, paclitaxel, and cisplatin were used at a dosage of 40 nM, 200 nM, 1 μM, 2 μM, 10 μM, or 50 μM for 4T1 breast cancer cell lines. COH-SR14 was used at a dosage of 40 nM, 200 nM, 1 μM, 2 μM, or 10 μM for 4T1 breast cancer cell lines. COH-SR3, COH-SR4, COH-SR9, doxorubicin, paclitaxel, and cisplatin were used at a dosage of 2 μM, 10 μM, or 50 μM for HMLE breast cancer cell lines. COH-SR14 was used at a dosage of 2 μM, or 10 μM for HMLE breast cancer cell lines.

## Cc1c(Cl)cc(NC(=O)Nc2cc(Cl)cc(Cl)c2)c(O)c1Cl [COH-SR9, 1-(3,5-dichlorophenyl)-3-(3,5-dichloro-2-hydroxy-4-methyphenyl) urea]
HL-60 cells [1]
  cytotoxicity and cell proliferation: exhibited cytotoxicity and prevented cell proliferation of HL-60 leukemia cells
HL-60 cells [1]; 72 hours incubation
  IC50: ~2500 nM
HL-60 cells [2]
  overall apoptotic cells: 40%
HL-60 cells [3]
  DiOC6(3) fluorescence (mitochondrial depolarization): decreased overall DiOC6(3) fluorescent intensity
  cytochrome c release and PARP: release of cytochrome c into the cytoplasm and PARP enzyme activation
  caspase 3/7 and caspase 9 activity: higher caspase 3/7 and caspase 9 activity
  DNA fragmentation (DNA ladder): dose-dependent DNA fragmentation
[4]
  protein levels of CDK inhibitors p21WAF1/Cip1 and p27Kip1: upregulated
  protein levels of cyclin D1, cyclin E2, CDK2 and CDK4: dose-dependent reduction in the protein levels of cyclin D1, cyclin E2, CDK2 and CDK4
HL-60 cells [5]
  superoxide production (NBT-positive cells): Induced Superoxide Production
  surface expression of CD11b and CD14: dose-dependent increase in expression of both CD11 b and CD14
  morphologic changes (Giemsa-Wright stain), myeloid differentiation: exhibited cytoplasmic vacuolation, reduced nucleus-to-cytoplasmic ratio, and absence of prominent nucleoli
[6]
  cytotoxic effects compared with doxorubicin, paclitaxel and cisplatin (FIG. 30): more potent cytotoxic effects

## O=C(Nc1cc(Cl)cc(Cl)c1)Nc1cc(Cl)cc(Cl)c1 [COH-SR4, 1,3-bis(3,5-dichlorophenyl) urea]
HL-60 cells [1]
  cytotoxicity and cell proliferation: exhibited cytotoxicity and prevented cell proliferation of HL-60 leukemia cells
HL-60 cells [1]; Homo sapiens, HL-60, 48 h
  IC50: < 5000 nM
HL-60 cells [1]; Homo sapiens, HL-60, 72 h
  IC50: ~1700 nM
HL-60 cells [2]
  overall apoptotic cells: ~60%
HL-60 cells [3]
  DiOC6(3) fluorescence (mitochondrial depolarization): decreased overall DiOC6(3) fluorescent intensity
  cytochrome c release and PARP: release of cytochrome c into the cytoplasm and PARP enzyme activation
  caspase 3/7 and caspase 9 activity: higher caspase 3/7 and caspase 9 activity
  DNA fragmentation (DNA ladder): dose-dependent DNA fragmentation
[4]
  protein levels of CDK inhibitors p21WAF1/Cip1 and p27Kip1: upregulated
  protein levels of cyclin D1, cyclin E2, CDK2 and CDK4: dose-dependent reduction in the protein levels of cyclin D1, cyclin E2, CDK2 and CDK4
HL-60 cells [5]
  superoxide production (NBT-positive cells): Induced Superoxide Production
  surface expression of CD11b and CD14: dose-dependent increase in expression of both CD11 b and CD14
  morphologic changes (Giemsa-Wright stain), myeloid differentiation: exhibited cytoplasmic vacuolation, reduced nucleus-to-cytoplasmic ratio, and absence of prominent nucleoli
[6]
  cytotoxic effects compared with doxorubicin, paclitaxel and cisplatin (FIG. 30): more potent cytotoxic effects
